For data set [1], the system named is Liver microsome. As to the kind of experiment: Intrinsic clearance in human liver microsomes measured per gram of tissue at 2.5 uM. Format: ADME. A general note: Liver microsomes are a subcellular fraction often used to study metabolism.
Data set [2] deals with Liver microsome. As to the kind of experiment: Intrinsic clearance in Wistar rat liver microsomes measured per gram of tissue at 2.5 uM. Format: ADME.
Data set [3] concerns the target Metabotropic glutamate receptor 5 (Rattus norvegicus, UniProt P31424). In words: Displacement of [3H]-M-MPEP from rat cerebrocortical mGluR5 receptor. (In general: Displacement assays read how much labelled ligand stays bound in the presence of the test substance.)

Sequence of Metabotropic glutamate receptor 5 (P31424 whole entry): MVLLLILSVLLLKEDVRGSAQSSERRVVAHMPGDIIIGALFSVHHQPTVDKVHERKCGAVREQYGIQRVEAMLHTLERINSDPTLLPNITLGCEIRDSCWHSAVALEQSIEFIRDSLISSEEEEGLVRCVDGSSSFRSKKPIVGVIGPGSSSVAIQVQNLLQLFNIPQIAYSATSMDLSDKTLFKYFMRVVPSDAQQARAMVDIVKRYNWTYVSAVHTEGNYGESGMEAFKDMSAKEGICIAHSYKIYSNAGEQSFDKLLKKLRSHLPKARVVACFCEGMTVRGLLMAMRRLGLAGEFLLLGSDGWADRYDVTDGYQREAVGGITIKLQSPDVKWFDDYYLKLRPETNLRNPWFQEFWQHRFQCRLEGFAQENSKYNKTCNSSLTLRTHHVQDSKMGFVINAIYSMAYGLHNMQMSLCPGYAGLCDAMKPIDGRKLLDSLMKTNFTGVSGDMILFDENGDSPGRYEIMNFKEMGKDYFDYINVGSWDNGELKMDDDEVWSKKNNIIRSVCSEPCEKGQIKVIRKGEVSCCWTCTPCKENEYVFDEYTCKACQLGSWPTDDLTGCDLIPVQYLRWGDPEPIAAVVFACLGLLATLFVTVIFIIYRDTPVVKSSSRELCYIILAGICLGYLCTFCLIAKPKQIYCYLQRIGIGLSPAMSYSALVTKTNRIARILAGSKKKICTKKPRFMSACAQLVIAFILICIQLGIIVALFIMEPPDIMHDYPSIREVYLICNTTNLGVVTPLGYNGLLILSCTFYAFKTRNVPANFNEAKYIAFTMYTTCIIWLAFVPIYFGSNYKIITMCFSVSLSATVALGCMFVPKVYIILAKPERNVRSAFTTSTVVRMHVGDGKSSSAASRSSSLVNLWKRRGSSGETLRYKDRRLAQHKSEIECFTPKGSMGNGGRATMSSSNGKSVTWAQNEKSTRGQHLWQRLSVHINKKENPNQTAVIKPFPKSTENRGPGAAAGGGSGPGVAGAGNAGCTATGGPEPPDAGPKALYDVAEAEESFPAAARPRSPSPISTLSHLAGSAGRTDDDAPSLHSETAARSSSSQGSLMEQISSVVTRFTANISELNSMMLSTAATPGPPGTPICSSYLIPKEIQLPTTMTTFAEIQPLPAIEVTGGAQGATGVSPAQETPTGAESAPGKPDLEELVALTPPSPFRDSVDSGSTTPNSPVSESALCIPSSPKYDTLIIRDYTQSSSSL

The Ki is the dissociation constant of the complex between target and ligand, obtained from inhibition or displacement. Take `O=S(=O)(c1ccc(Cl)cc1)c1sc2nccc(F)c2c1-c1ccc(Cl)cc1`: the CLH in data set [1] was determined as 3.6 mL/min/g; in data set [2] it was 12.1 mL/min/g. The same compound had a Ki in data set [3] of 214 nM.
As to `Nc1cnc2sc(S(=O)(=O)c3ccc(Cl)cc3)c(-c3ccccc3F)c2c1`, the CLH in data set [1] worked out at 1.9 mL/min/g; in data set [2], 2.8 mL/min/g. The compound further had a Ki in data set [3] of 58 nM.
On to `Cc1cccc(S(=O)(=O)c2sc3ncccc3c2-c2ccc(Cl)cc2)c1`, for which the affinity in data set [3] corresponds to a Ki of 9.3 nM.
Same read-out and setting: as for `COc1ccc(S(=O)(=O)c2sc3ncccc3c2-c2ccc(Cl)cc2)cc1`, the figure is 20 nM; as for `COc1ccc(S(=O)(=O)c2sc3ncccc3c2-c2ccc(Cl)cc2)cc1F`, 7.9 nM.
Consider `N#Cc1cccc(S(=O)(=O)c2sc3ncccc3c2-c2cccc(F)c2)c1`, for which the CLH in data set [1] turned out to be 1.9 mL/min/g; in data set [2], 13.9 mL/min/g. The Ki in data set [3] worked out at 4.8 nM.
Taken in the same sequence, the figures for `O=S(=O)(c1ccc(Cl)cc1)c1sc2ncccc2c1-c1ccc(Cl)c(Cl)c1` were 2.5 mL/min/g, 9.7 mL/min/g and 31 nM.
Regarding `O=S(=O)(c1ccc(F)cc1)c1sc2ncccc2c1-c1ccc(Cl)cc1`, the Ki in data set [3] was found to be 15.6 nM.
The same measure, in the same setting: the figure for `CN(C)c1ccc(S(=O)(=O)c2sc3ncccc3c2-c2ccc(Cl)cc2)cc1` is 52 nM.
Turning to `N#Cc1cc(F)cc(S(=O)(=O)c2sc3nc(Cl)ccc3c2-c2ccc(F)cc2)c1`, the CLH in data set [1] amounted to 0.6 mL/min/g; in data set [2], 2.1 mL/min/g. For the same compound, the Ki in data set [3] is 20 nM.
On the same counts, the results for `N#Cc1cccc(S(=O)(=O)c2sc3ncc(N)cc3c2-c2ccc(F)cc2)c1` are 1.3 mL/min/g, 3.8 mL/min/g and 8.8 nM.
Regarding `O=S(=O)(c1ccc(Cl)cc1)c1sc2ncccc2c1-c1cccc(Cl)c1`, the CLH in data set [1] was 1.3 mL/min/g; in data set [2], 2.8 mL/min/g. The Ki in data set [3] worked out at 37 nM.
In data set [3], `Cc1ccc(S(=O)(=O)c2sc3ncccc3c2-c2ccc(Cl)cc2)cc1Cl` showed an inhibition constant (Ki) of 6.8 nM.
With `N#Cc1cc(F)cc(S(=O)(=O)c2sc3ncc(N)cc3c2-c2ccncc2Cl)c1`, the CLH in data set [1] was 1 mL/min/g; in data set [2], 0.7 mL/min/g. Also, the inhibitory constant (Ki) in data set [3] was 44 nM.
In data set [3], `Cc1ccc(S(=O)(=O)c2sc3ncccc3c2-c2ccc(Cl)cc2)cc1F` came in with a Ki of 11.8 nM.
In turn, `Cc1cc(C)cc(S(=O)(=O)c2sc3ncccc3c2-c2ccc(Cl)cc2)c1` yielded a Ki in data set [3] of 24 nM.
For the compound `CC(C)c1ccc(S(=O)(=O)c2sc3ncccc3c2-c2ccc(Cl)cc2)cc1`, the Ki in data set [3] worked out at 66 nM.
The same measure, in the same setting: as for `O=S(=O)(c1cc(F)cc(C(F)(F)F)c1)c1sc2ncccc2c1-c1ccc(Cl)cc1`, the figure is 41 nM.
As for `O=S(=O)(c1cccc(F)c1)c1sc2ncccc2c1-c1ccc(Cl)cc1`, the affinity in data set [3] corresponds to a Ki of 43 nM.
Same read-out and setting: the figure for `Cc1ccc(S(=O)(=O)c2sc3ncccc3c2-c2ccc(Cl)cc2)cc1C` is 3.3 nM.
The same measure, in the same setting: the figure for `O=S(=O)(c1cccc(Cl)c1)c1sc2ncccc2c1-c1ccc(Cl)cc1` is 15.9 nM; for `O=S(=O)(c1ccccc1)c1sc2ncccc2c1-c1ccc(Cl)cc1` it is 96 nM.
Still for that read-out and setting: the figure for `O=S(=O)(c1ccc(Cl)cc1Cl)c1sc2ncccc2c1-c1ccc(Cl)cc1` is 105 nM.
As for `O=S(=O)(c1ccc(Cl)c(Cl)c1)c1sc2ncccc2c1-c1ccc(Cl)cc1`, the Ki in data set [3] amounted to 10.7 nM.
Still for that read-out and setting: the figure for `Cc1ccc(S(=O)(=O)c2sc3ncccc3c2-c2ccc(Cl)cc2)cc1` is 15.4 nM.
In turn, `O=C(Nc1cccc(Cl)c1)O/N=C1\CCCCC1Cc1cccs1` (stereo not drawn) showed a Ki in data set [3] of 9.1 nM.
Still for that read-out and setting: as for `N#Cc1ccc(S(=O)(=O)c2sc3ncccc3c2-c2ccc(Cl)cc2)cc1`, the figure is 36 nM; as for `O=S(=O)(c1cccnc1)c1sc2ncccc2c1-c1ccc(Cl)cc1`, 289 nM; as for `O=S(=O)(c1cc(F)cc(F)c1)c1sc2ncccc2c1-c1ccc(Cl)cc1`, 36 nM.
Still for that read-out and setting: as for `O=S(=O)(c1cccc(C(F)(F)F)c1)c1sc2ncccc2c1-c1ccc(Cl)cc1`, the figure is 54 nM; as for `O=S(=O)(c1ccc(C(F)(F)F)cc1)c1sc2ncccc2c1-c1ccc(Cl)cc1`, 272 nM.
In data set [3], `COc1cccc(S(=O)(=O)c2sc3ncccc3c2-c2ccc(Cl)cc2)c1` gave a Ki of 9.5 nM.

The values are drawn from ChEMBL document CHEMBL3400086, “Thieno[2,3-b]pyridines as negative allosteric modulators of metabotropic GluR5 receptors: Lead optimization” (Bioorg Med Chem Lett, 2015).
